# Laboratory results published in publication PMC10175918 (Communications Biology, 2023).
# Where two headings read alike, the source gives them in different places.
# Assays:
# Assay in all cases: TGFα-shedding assay-based GPCR screening with chimeric Gα subunit proteins
# Type in all cases: cell-based
# 348 GPCRs [1] = target: T1, 348 GPCRs (Homo sapiens, UniProt P04001); conditions: 10µM, Favipiravir 100μM
# T1 construct: expressed in transfected cells; host or cells: HEK293A
# T1 sequence (P04001 1-364): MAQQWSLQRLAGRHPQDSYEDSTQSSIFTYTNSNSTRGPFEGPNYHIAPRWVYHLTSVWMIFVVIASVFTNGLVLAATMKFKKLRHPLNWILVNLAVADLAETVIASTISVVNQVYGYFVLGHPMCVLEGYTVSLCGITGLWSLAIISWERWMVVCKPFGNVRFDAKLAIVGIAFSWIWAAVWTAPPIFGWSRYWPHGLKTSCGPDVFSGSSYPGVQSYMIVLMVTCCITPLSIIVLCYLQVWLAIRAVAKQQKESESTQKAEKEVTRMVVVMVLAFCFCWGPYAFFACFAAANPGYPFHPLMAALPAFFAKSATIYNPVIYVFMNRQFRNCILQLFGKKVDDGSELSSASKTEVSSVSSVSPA
# 348 GPCRs [2] = target: T2, 348 GPCRs (Homo sapiens, UniProt P25101); conditions: 10µM, Favipiravir 100μM
# T2 construct: expressed in transfected cells; host or cells: HEK293A
# T2 sequence (P25101 21-427): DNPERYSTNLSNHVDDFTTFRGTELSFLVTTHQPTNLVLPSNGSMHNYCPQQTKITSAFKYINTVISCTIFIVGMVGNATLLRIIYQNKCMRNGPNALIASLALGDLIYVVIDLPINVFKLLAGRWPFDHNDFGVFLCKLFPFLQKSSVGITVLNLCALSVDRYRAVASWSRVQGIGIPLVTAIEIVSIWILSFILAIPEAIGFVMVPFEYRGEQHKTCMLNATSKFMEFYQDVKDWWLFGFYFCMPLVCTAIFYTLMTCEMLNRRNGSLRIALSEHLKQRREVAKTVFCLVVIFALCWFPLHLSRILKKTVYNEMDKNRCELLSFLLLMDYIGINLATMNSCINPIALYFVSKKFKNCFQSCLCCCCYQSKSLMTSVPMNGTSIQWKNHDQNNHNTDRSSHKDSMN
# 348 GPCRs [3] = target: T3, 348 GPCRs (Homo sapiens, UniProt Q86VZ1)
# T3 construct: expressed in transfected cells; host or cells: HEK293A
# T3 sequence (Q86VZ1 whole entry): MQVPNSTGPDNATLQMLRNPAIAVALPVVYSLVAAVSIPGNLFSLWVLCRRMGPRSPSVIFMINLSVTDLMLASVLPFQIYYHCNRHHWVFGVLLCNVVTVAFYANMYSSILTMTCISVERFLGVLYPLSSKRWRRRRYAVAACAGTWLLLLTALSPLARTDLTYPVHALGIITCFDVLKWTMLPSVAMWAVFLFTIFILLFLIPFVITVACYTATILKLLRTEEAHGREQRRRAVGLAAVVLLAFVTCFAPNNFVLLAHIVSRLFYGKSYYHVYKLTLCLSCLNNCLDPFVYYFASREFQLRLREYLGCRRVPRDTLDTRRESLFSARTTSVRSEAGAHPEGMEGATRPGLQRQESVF
# 348 GPCRs [4] = target: T4, 348 GPCRs (Homo sapiens, UniProt Q8IWK6); conditions: 10µM, Favipiravir 100μM
# T4 construct: expressed in transfected cells; host or cells: HEK293A
# T4 sequence (Q8IWK6 34-1321): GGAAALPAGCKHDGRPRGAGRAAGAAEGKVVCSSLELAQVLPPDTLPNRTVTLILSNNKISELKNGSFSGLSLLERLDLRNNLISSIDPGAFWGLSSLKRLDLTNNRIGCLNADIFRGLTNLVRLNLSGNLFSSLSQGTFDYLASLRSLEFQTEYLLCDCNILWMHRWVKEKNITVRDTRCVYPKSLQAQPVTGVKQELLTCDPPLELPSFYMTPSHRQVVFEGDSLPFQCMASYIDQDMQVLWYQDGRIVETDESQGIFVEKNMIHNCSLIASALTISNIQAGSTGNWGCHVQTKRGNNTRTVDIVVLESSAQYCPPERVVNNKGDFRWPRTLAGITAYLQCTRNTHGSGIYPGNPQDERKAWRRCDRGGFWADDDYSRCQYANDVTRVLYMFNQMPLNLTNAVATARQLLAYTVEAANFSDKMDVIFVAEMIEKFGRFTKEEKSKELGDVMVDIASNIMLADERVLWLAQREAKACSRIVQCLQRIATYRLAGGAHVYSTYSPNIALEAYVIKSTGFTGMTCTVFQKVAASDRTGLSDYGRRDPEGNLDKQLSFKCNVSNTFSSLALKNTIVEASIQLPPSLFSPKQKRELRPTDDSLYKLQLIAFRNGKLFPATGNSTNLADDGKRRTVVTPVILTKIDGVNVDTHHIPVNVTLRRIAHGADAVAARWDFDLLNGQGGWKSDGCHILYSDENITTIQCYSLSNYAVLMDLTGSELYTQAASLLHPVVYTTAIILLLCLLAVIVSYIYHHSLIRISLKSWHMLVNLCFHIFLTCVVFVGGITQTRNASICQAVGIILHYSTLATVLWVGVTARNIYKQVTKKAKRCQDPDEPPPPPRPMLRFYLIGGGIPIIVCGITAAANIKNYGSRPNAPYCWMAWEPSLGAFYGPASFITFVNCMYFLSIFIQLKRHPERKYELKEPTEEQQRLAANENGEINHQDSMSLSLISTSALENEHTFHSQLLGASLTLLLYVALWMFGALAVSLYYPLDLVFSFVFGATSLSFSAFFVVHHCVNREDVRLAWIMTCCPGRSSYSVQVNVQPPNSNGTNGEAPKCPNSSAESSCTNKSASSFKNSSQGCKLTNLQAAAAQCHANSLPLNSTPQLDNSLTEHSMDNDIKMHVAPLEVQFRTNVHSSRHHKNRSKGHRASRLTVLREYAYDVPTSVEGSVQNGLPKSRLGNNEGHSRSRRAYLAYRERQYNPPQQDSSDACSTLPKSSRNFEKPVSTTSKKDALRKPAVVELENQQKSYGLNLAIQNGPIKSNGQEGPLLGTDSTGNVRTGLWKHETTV
# 348 GPCRs [5] = target: T5, 348 GPCRs (Homo sapiens, UniProt Q96P67); conditions: 10µM, Favipiravir 100μM
# T5 construct: expressed in transfected cells; host or cells: HEK293A
# T5 sequence (Q96P67 whole entry): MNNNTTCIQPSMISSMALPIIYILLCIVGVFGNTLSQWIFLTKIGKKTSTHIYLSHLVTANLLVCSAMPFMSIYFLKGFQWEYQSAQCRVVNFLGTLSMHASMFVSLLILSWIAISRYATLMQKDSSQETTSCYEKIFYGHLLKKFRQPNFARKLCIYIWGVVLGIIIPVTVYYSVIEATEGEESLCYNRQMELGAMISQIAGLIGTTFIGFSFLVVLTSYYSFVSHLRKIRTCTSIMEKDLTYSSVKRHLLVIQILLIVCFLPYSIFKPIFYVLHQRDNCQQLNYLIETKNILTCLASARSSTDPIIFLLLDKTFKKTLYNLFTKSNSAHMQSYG
# 348 GPCRs [6] = target: T6, 348 GPCRs (Homo sapiens, UniProt Q96P68)
# T6 construct: expressed in transfected cells; host or cells: HEK293A
# 348 GPCRs [7] = target: T7, 348 GPCRs (Homo sapiens, UniProt Q9Y3P9); conditions: 10µM, Favipiravir 100μM
# T7 construct: expressed in transfected cells; host or cells: HEK293A
# T7 sequence (Q9Y3P9 whole entry): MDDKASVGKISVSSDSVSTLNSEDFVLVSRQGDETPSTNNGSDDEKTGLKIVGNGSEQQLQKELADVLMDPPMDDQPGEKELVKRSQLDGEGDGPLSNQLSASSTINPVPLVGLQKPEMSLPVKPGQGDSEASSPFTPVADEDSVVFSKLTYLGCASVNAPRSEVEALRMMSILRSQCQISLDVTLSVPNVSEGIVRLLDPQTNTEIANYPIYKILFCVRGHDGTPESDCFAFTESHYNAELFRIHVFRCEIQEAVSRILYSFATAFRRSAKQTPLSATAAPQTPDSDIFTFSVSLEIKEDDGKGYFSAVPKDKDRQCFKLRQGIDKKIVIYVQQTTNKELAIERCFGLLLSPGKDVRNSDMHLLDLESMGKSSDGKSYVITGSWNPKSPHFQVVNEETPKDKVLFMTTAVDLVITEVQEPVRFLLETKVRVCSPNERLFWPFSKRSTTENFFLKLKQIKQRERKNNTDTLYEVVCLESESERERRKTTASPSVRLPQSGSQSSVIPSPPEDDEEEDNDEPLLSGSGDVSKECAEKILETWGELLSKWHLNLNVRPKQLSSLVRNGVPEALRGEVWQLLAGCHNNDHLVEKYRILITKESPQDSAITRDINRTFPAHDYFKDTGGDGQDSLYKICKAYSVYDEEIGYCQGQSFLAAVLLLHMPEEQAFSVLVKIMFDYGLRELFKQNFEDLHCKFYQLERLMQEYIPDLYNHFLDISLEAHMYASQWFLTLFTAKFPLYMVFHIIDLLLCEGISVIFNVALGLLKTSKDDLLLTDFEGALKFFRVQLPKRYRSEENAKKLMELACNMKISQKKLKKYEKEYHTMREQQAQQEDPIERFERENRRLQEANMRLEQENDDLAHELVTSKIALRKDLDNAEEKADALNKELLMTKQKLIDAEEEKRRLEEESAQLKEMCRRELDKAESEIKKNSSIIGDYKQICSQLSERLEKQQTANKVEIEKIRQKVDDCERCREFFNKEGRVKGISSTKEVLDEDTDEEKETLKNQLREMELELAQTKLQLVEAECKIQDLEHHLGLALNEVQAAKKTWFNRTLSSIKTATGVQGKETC
# [8] = OPN1MW (opsin 1 (cone pigments), medium-wave-sensitive), read-out: % GPCR activation compared to TPA
# [9] = EDNRA (endothelin receptor type A), read-out: % GPCR activation compared to TPA
# [10] = GPCR P2Y8 (purinergic receptor P2Y, G-protein coupled, 8), read-out: % GPCR activation compared to TPA
# [11] = GPR125 (Adhesion G Protein-Coupled Receptor A2 (ADGRA3)), read-out: % GPCR activation compared to TPA
# [12] = GPR82 (G Protein-Coupled Receptor 82), read-out: % GPCR activation compared to TPA
# [13] = GPCR OXGR1 (oxoglutarate (alpha-ketoglutarate) receptor 1), read-out: % GPCR activation compared to TPA
# [14] = RABGAP1 (Rab GTPase-activating protein 1), read-out: % GPCR activation compared to TPA
# [15] = read-out: % GPCR activation compared to TPA, OPN1MW (opsin 1 (cone pigments), medium-wave-sensitive)
# [16] = read-out: % GPCR activation compared to TPA, EDNRA (endothelin receptor type A)
# [17] = read-out: % GPCR activation compared to TPA, GPCR P2Y8 (purinergic receptor P2Y, G-protein coupled, 8)
# [18] = read-out: % GPCR activation compared to TPA, GPR125 (Adhesion G Protein-Coupled Receptor A2 (ADGRA3))
# [19] = read-out: % GPCR activation compared to TPA, GPR82 (G Protein-Coupled Receptor 82)
# [20] = read-out: % GPCR activation compared to TPA, GPCR OXGR1 (oxoglutarate (alpha-ketoglutarate) receptor 1)
# [21] = read-out: % GPCR activation compared to TPA, RABGAP1 (Rab GTPase-activating protein 1)
activation at 100 µM (348 GPCRs [1]; [8]) [%],activation at 100 µM (348 GPCRs [2]; [9]) [%],activation at 10 µM (348 GPCRs [3]; [10]) [%],activation at 10 µM (348 GPCRs [4]; [11]) [%],activation at 100 µM (348 GPCRs [5]; [12]) [%],activation at 10 µM (348 GPCRs [6]; [13]) [%],activation at 100 µM (348 GPCRs [7]; [14]) [%],"activation at 100 µM (348 GPCRs [3]; GPCR P2Y8 (purinergic receptor P2Y, G-protein coupled, 8), 100μM, read-out: % GPCR activation compared to TPA) [%]","activation at 100 µM (348 GPCRs [6]; GPCR OXGR1 (oxoglutarate (alpha-ketoglutarate) receptor 1), 100μM, read-out: % GPCR activation compared to TPA) [%]",Structure (SMILES),activation at 100 µM (348 GPCRs [1]; [15]) [%],activation at 100 µM (348 GPCRs [2]; [16]) [%],activation at 10 µM (348 GPCRs [3]; [17]) [%],activation at 10 µM (348 GPCRs [4]; [18]) [%],activation at 100 µM (348 GPCRs [5]; [19]) [%],activation at 10 µM (348 GPCRs [6]; [20]) [%],activation at 100 µM (348 GPCRs [7]; [21]) [%]
-1.4,2.17,1.71,-0.689,-1.55,-0.462,-1.83,,,N#C[C@@]1(c2ccc3c(N)ncnn23)O[C@H](CO)[C@@H](O)[C@H]1O [GS441524],,,,,,,
-0.549,0.818,,-1.96,-0.0995,,-1.48,1.7,-1.07,"NC(=O)c1nc(F)cnc1O [favipiravir, 6-fluoro-3-hydroxy-2-pyrazinecarboxamide]",,,,,,,
-0.857,0.536,-9.1,-0.998,-1.43,0.239,-0.481,,,CC(C)C(=O)OC[C@H]1O[C@@H](n2ccc(NO)nc2=O)[C@H](O)[C@@H]1O [molnupiravir],,,,,,,
,,,,,,,,,CCC(CC)COC(=O)[C@H](C)N[P@](=O)(OC[C@H]1O[C@@](C#N)(c2ccc3c(N)ncnn23)[C@H](O)[C@@H]1O)Oc1ccccc1 [remdesivir],1.48,-0.597,6.38,-0.226,-0.315,0.444,-0.577
,,,,,,,,,CC(C)OC(=O)[C@H](C)N[P@](=O)(OC[C@H]1O[C@@H](n2ccc(=O)[nH]c2=O)[C@](C)(F)[C@@H]1O)Oc1ccccc1 [sofosbuvir],-1.41,2.91,-3.86,0.926,0.262,1.77,-1.28
